Data from patent US20240225056A1, “Rhodotorula Capable of Efficiently Degrading Ethyl Carbamate and Application Thereof” (priority 2022, published 2024).

Test system: R. toruloides DL-XSY01
Test: Antibiotic sensitivity test, disc diffusion method
Format: cell-based
Settings: YPD-agar, 28° C., 24 h
Protocol: The antibiotic sensitivity spectrum of the R. toruloides DL-XSY01 was characterized by using a disc diffusion method. […] The above medium with each type of paper was statically cultured at 28° C. for 24 h, and then the diameter of an inhibition zone was measured and counted; and analysis was performed on the drug resistance R (≤14 mm), intermediate-phase I (14-20 mm) or sensitivity S (≥20 mm), with three replicates for each group.

Row | Compound | Antibiotic sensitivity of DL-XSY01 (in words) | Antibiotic sensitivity of DL-XSY01 (inhibition zone class)
1 | NCC[C@H](O)C(=O)N[C@@H]1C[C@H](N)[C@@H](O[C@H]2O[C@H](CN)[C@@H](O)[C@H](O)[C@H]2O)[C@H](O)[C@H]1O[C@H]1O[C@H](CO)[C@@H](O)[C@H](N)[C@H]1O [Amikacin] | sensitive | S (sensitivity S (≥20 mm))
2 | CC1(C)S[C@@H]2[C@H](NC(=O)[C@H](N)c3ccccc3)C(=O)N2[C@H]1C(=O)O [Ampicillin] | sensitive | S (sensitivity S (≥20 mm))
3 | Cc1nnc(SCC2=C(C(=O)O)N3C(=O)[C@@H](NC(=O)Cn4cnnn4)[C@H]3SC2)s1 [Cefazolin] | sensitive | S (sensitivity S (≥20 mm))
4 | CC1=C(C(=O)O)N2C(=O)[C@@H](NC(=O)[C@H](N)c3ccccc3)[C@H]2SC1 [Cephalexin] | moderately sensitive | I (intermediate-phase I (14-20 mm))
5 | CC[C@H]1OC(=O)[C@H](C)[C@@H](O[C@H]2C[C@@](C)(OC)[C@@H](O)[C@H](C)O2)[C@H](C)[C@@H](O[C@@H]2O[C@H](C)C[C@H](N(C)C)[C@H]2O)[C@](C)(O)C[C@@H](C)C(=O)[C@H](C)[C@@H](O)[C@]1(C)O [Erythromycin] | sensitive | S (sensitivity S (≥20 mm))
6 | CN(C)c1ccc(O)c2c1C[C@H]1C[C@H]3[C@H](N(C)C)C(O)=C(C(N)=O)C(=O)[C@@]3(O)C(O)=C1C2=O [Minocycline] | – | S (sensitivity S (≥20 mm))
7 | CC1(C)S[C@@H]2[C@H](NC(=O)Cc3ccccc3)C(=O)N2[C@H]1C(=O)O [Penicillin G] | sensitive | S (sensitivity S (≥20 mm))
8 | [H]/N=C(/N)N[C@H]1[C@H](O)[C@@H](O)[C@H](O[C@@H]2O[C@@H](C)[C@](O)(C=O)[C@H]2O[C@@H]2O[C@@H](CO)[C@H](O)[C@@H](O)[C@@H]2NC)[C@@H](N/C(N)=N\[H])[C@@H]1O [Streptomycin] | sensitive | S (sensitivity S (≥20 mm))
9 | CN(C)[C@@H]1C(O)=C(C(N)=O)C(=O)[C@@]2(O)C(O)=C3C(=O)c4c(O)cccc4[C@@](C)(O)[C@H]3C[C@@H]12 [Tetracycline] | – | S (sensitivity S (≥20 mm))
10 | CN[C@H](CC(C)C)C(=O)N[C@H]1C(=O)N[C@@H](CC(N)=O)C(=O)N[C@H]2C(=O)N[C@H]3C(=O)N[C@H](C(=O)N[C@H](C(=O)O)c4cc(O)cc(O)c4-c4cc3ccc4O)[C@H](O)c3ccc(c(Cl)c3)Oc3cc2cc(c3O[C@@H]2O[C@H](CO)[C@@H](O)[C@H](O)[C@H]2O[C@H]2C[C@](C)(N)[C@H](O)[C@H](C)O2)Oc2ccc(cc2Cl)[C@H]1O [Vancomycin] | sensitive | S (sensitivity S (≥20 mm))
11 | Gentamicin | sensitive | S (sensitivity S (≥20 mm))
